The subject of data set [1] is rat hind foot kaolin-induced oedema. Briefly: Kaolin-induced arthritis test, first experiment (decrease in inflammation, foot volume). The class given is in vivo. To be noted: 1 h before kaolin, Table IX, read-out: percentage decrease in the inflammation; for change in vivo at 25 mg/kg: 25 mg/kg oral; for change in vivo at 50 mg/kg: 50 mg/kg oral; for change in vivo at 100 mg/kg: 100 mg/kg oral. The method, boiled down: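 Kaolin (0.05 ml of sterile 10% suspension) injected into metatarsal flexor sheath of rat hind foot; compounds given orally by stomach tube 1 h before. Foot volume measured by plethysmometer during early oedema (maximal 4–6 h). Value is % decrease in inflammation versus controls, mean of 10 animals per dose.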

Data set [2] deals with rat hind foot carragheenin-induced oedema. The data set is described as follows: Carragheenin-induced oedema test. In kind it is in vivo. To be noted: 3 h, first experiment, Table X, read-out: percentage inhibition of the inflammation; for change in vivo at 25 mg/kg: 25 mg/kg oral; for change in vivo at 50 mg/kg: 50 mg/kg oral; for change in vivo at 100 mg/kg: 100 mg/kg oral.

Data set [3] concerns foreign-body (sponge) granuloma in rats. Briefly: Experimental granuloma induced by foreign body, histological study. The class given is in vivo, Wistar rats. The following applies: both doses (50 and 100 mg/kg) oral, 8 days; Table XI.
The test system of data set [4] is pain threshold of brewer's yeast inflamed rat hind foot. Briefly: Randall and Sellitto's test (analgesic activity). In kind it is in vivo. The following applies: first experiment, Table XII, read-out: percentage increase in the mean pain threshold; for change in vivo at 25 mg/kg: 25 mg/kg oral; for change in vivo at 50 mg/kg: 50 mg/kg oral; for change in vivo at 100 mg/kg: 100 mg/kg oral. The method, boiled down: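 Rats had 0.1 ml 20% brewer's yeast suspension injected under the hind-foot plantar aponeurosis; compounds dosed orally by stomach tube 1 h before yeast. Pain threshold was the pressure eliciting foot withdrawal, read at the 4–6 h plateau; result is % increase in mean threshold versus untreated controls, 10 rats per group.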

A short description of data set [5]: Oral LD50 in rats. To be noted: rat, in vivo, male Wistar rats, 200-400 g, 14 days observation, read-out: approximate oral LD50. The method, then: (§1) The compounds were suspended in a 3% strength solution of gum arabic so as to supply, in a volume of 2 ml for the rats, the equivalent of 50, 100, 200, 400 and 800 mg/kg, and, in a volume of 1 ml for the mice, 100, 200, 400, 800 and 1,600 mg/kg and, for 1573 and 1579, 3,200 mg/kg.
(§2) Gavage was performed by means of a metal tube, on batches of 5 animals for each series.
(§3) The animals were observed daily for 14 days.

Data set [6] is described as follows: Oral LD50 in mice. The following applies: mouse, in vivo, female Swiss CF mice, 20 g, 14 days observation, read-out: approximate oral LD50. How it is done: as §1, §2, §3

Each structure is given as a SMILES string.

As usually defined, the LD50 is the dose at which mortality reaches 50%. For `O=C(c1ccccc1)c1cc([N+](=O)[O-])ccc1S(=O)(=O)NCCCN1CCOCC1` [Compound 1361], the change in vivo at 25 mg/kg was -25% in data set [1], -15% in data set [2] and 20% in data set [4]. The change in vivo at 50 mg/kg was -30% in data set [1], -25% in data set [2] and 25% in data set [4]. Further, the change in vivo at 100 mg/kg is -48% in data set [1], -45% in data set [2] and 45% in data set [4]. In data set [3], the “histological study of the granuloma” value is recorded as “anti-inflammatory activity is exhibited”. In addition, the LD50 at 336 h was greater than 800 mg/kg in data set [5] and greater than 1600 mg/kg in data set [6].

In the case of `O=C(O)CCCNS(=O)(=O)c1ccc(Cl)cc1C(=O)c1ccccc1Cl` [Compound 1573], the change in vivo at 25 mg/kg was -15% in data set [1], -17% in data set [2] and 20% in data set [4]. Besides, the change in vivo at 50 mg/kg is -30% in data set [1], -28% in data set [2] and 35% in data set [4]. The change in vivo at 100 mg/kg in data set [1] is -52%; in data set [2], -50%; in data set [4] it was 60%. The “histological study of the granuloma” value in data set [3] was “the activity is very distinct”. For the same compound, the LD50 at 336 h in data set [6] was greater than 3200 mg/kg.

The values above are taken from patent US4980349A, “Sulphonamides derived from diarylmethanes, the processes for preparing them and pharmaceutical compositions containing them” (SANOFI, priority 1986, dated 1990).
